Assay results from patent US20160175401A1, “COMPOITIONS AND METHODS FOR MODULATING THERMOGENESIS USING PTH-RELATED AND EGF-RELATED COMPOUNDS” (DANA-FARBER CANCER INSTITUTE INC., priority 2013, published 2016).

What was measured:
primary brown adipocytes = assay: Thermogenic gene expression (qRT-PCR) in primary brown adipocytes; assay type: cell-based, mouse
Procedure: (§1) RNA was extracted from cultured cells or frozen tissue samples using TRIzol (Invitrogen), purified with Qiagen RNAeasy minicolums and reverse transcribed using High Capacity cDNA Reverse Transcription kit (Applied Biosystems). Resulting cDNA was analyzed by RT-qPCR. Briefly, 25 ng of cDNA and […] of each primer were mixed with SYBR® GreenER™ PCR Master Mix (Invitrogen). Reactions were performed in 384-well format using an ABI PRISM® 7900HT instrument (Applied Biosystems). Relative mRNA levels were calculated using the comparative CT method normalized to cyclophilin.

primary white adipocytes = assay: Thermogenic gene expression (qRT-PCR) in primary white adipocytes; assay type: cell-based, mouse; conditions: for thermogenic effects (thermogenic gene expression): 1 μg/ml, 4 hours, primary white adipocytes (FIG. 8A-8C)
Procedure: Inguinal SV fractions were obtained from 30-35 days-old male mice by the following procedure. Inguinal fat tissue was dissected, washed with PBS, minced and digested for 45 min at 37° C. in PBS containing 10 mM CaCl, 2.4 U/mL dispase II (Roche), and 1.5 U/mL collagenase D (Roche). Digested tissue was filtered through a 100-μm cell strainer and centrifuged at 600 g for 5 min to pellet the SV cells which were then resuspended in SV culture medium (DMEM/F12 [1:1; Invitrogen] plus glutamax, pen/strep, and 10% FBS), filtered through a 40-μm cell strainer, centrifugation as above, resuspended in SV culture medium and plated. SV cells were grown to confluency for adipocyte differentiation which was induced by the adipogenic cocktail containing 1 μM dexamethasone, 5 μg/mL insulin, […] isobutylmethylxanthine (DMI), and 1 μM rosiglitazone in SV culture medium. 2 days after induction, cells were maintained in SV culture medium containing 5 μg/mL insulin and 1 μM rosiglitazone. Starting at day 6, cells were maintained in SV culture medium only and treated with various molecules for […] and harvested at day 8.
LLC cells were maintained in DMEM (Invitrogen) with 10% FBS and pen/strep. For conditioned media collection, cells were plated at ⅓ confluency. The following day, medium is changed to FreeStyle expression medium (Invitrogen) which was collected 24 hours later. For concentration of expression medium, LLC conditioned media was filtered using a 3 kilodalton (Kd) cut-off filter (Millipore). Adipocytes were maintained in SV culture media (DMEM/F12 [1:1; Invitrogen] plus glutamax, pen/strep, and 10% FBS) and conditioned media treatment experiments were performed 7 days post-differentiation. When adipocytes were treated with conditioned media for 24 hours, the treatment media were composed of 50% SV culturing medium and 50% LLC conditioned media. When conditioned medium was filtered and concentrated, adipocytes were exposed to 90% SV culturing medium and 10% concentrated LLC conditioned media.
as §1
Inguinal stroma-vascular fractions were obtained from 30-35-day-old male mice using the following procedure: Inguinal fat tissue was dissected, washed with PBS, minced and digested for 45 min at 37° C. in PBS containing 10 mM CaCl2, 2.4 Uml^−1 dispase 11 (Roche) and 1.5 U ml^−1 collagenaseD (Roche). Digested tissue was filtered through a 100-μm cell strainer and centrifuged at 600 g for 5 min to pellet the stroma-vascular cells. The pellets were then resuspended in adipocyte culture medium (DMEM/F2 (1:1, Invitrogen) plus GlutaMAX, penicillin and streptomycin, and 10% FBS), filtered through a 40-μm cell strainer, centrifuged as above, resuspended in adipocyte culture medium and plated. The stroma-vascular cells were grown to confluence for adipocyte differentiation, which was induced by an adipogenic cocktail containing 1 μM dexamethasone, 5 μg ml^−1 insulin, […] isobutylmethylxanthine (DMI) and 1 μM rosiglitazone in adipocyte culture medium. Two days after induction, cells were maintained in adipocyte culture medium containing 5 μg ml^−1 insulin and 1 μM rosiglitazone. Starting on day 6, cells were maintained in adipocyte culture medium only and treated with various molecules for 2-24 h and harvested on day 8.
LLC cells were maintained in DMEM (Invitrogen) with 10% FBS, and penicillin and streptomycin. For conditioned medium collection, cells were plated at a 1:3 confluence.

[1] = system: PKA substrates CREB and HSL; assay: PKA signalling: protein phosphorylation by western blotting in primary adipocytes; assay type: cell-based, mouse; conditions: 100 nM NE, 100 ng ml^−1 PTHrP or PTH, 30 min, primary white and brown adipocytes (FIG. 23D-23E)
Procedure: UCP1 protein levels were measured by western blotting in white (FIG. 23A) and brown (FIG. 23B) adipocytes. […] Real-time triplicate readings (upper panel) and their averages (lower panel) are shown (n=4). […] The values are mean±s.e.m. Statistical analysis was conducted using the two-tailed t-test. *, P<0.05; **, P<0.005; ***, P<0.0005, compared with the control group.
Cells were homogenized in a lysis buffer containing 50 mMTris (pH 7.4), 500 mM NaCl, 1% NP40, 20% glycerol, 5 mM EDTA and 1 mM phenylmethylsulphonyl fluoride (PMSF) supplemented with protease and phosphatase inhibitor cocktails (Roche). The homogenates were centrifuged at 13,000 r.p.m. for 10 min, and the supernatants were used as whole-cell lysates. Protein concentration was determined by Bio-Rad protein assay, and […] protein lysate was separated in each SDS-PAGE lane. The separated proteins were transferred to a polyvinylidene difluoride (PVDF)membrane, which was blotted with antibodies in TBS containing 0.05% Tween (TBS-T) and 5% BSA. For secondary antibody incubation. TBS-T containing 5% milk was used. Enhanced chemiluminescence (ECL) western blotting substrates (Pierce) were used for visualization of the results.

PTH1R = target: T1, PTH1R (Homo sapiens, UniProt Q03431); conditions: cited from earlier work
T1 sequence (Q03431 27-593): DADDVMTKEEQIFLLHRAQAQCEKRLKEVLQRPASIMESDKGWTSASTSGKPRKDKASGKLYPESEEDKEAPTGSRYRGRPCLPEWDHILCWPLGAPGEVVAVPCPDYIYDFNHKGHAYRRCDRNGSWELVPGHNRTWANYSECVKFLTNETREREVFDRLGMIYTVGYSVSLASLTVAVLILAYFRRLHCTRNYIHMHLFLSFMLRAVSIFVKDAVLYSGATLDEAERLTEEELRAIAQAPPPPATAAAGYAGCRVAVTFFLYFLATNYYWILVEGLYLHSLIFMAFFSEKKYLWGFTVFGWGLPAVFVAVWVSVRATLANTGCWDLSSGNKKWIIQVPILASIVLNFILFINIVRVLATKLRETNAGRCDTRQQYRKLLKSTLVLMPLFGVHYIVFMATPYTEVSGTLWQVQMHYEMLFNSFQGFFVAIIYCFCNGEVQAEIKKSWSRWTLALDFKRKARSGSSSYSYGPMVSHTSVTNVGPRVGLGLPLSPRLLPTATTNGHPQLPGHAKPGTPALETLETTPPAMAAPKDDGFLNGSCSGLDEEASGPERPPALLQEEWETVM

Which results are given for “PTH (1-34): Synthetic peptide rat PTH(1-34) (Ala32-Phe65; Catalog No. H-5460), purchased from Bachem”?
thermogenic gene expression (primary brown adipocytes; 100 ng ml^−1 peptide, 2 h, primary brown adipocytes (FIG. 20D)): stimulated thermogenic gene expression; thermogenic effects (thermogenic gene expression) (primary brown adipocytes; 1 μg/ml, primary brown adipocytes (FIG. 9A)): thermogenic effects; thermogenic gene expression (primary white adipocytes; 100 ng ml^−1 peptide, 2 h, primary white adipocytes (FIG. 21B)): stimulated thermogenic gene expression; thermogenic effects (thermogenic gene expression) (primary white adipocytes): thermogenic effects; thermogenic effects (thermogenic gene expression) (primary white adipocytes; listed as PTH): powerful inducers of thermogenic gene expression; phosphorylation of the PKA substrates CREB and HSL [1]: stimulated the phosphorylation; duration of cAMP signal after ligand wash-out (PTH1R; Dean et al. (2008)): longer lasting cAMP signal; potency for activating cAMP signaling (PTH1R; Juppner et al. (1991)): equally potent for activating cAMP signaling
